Literature values, collected in patent US10980718B2, “Personal care compositions comprising poorly soluble compounds” (Conopco, Inc., priority 2016, dated 2021).

solubility of cystine in aqueous solutions by pH (aqueous solutions with pH less than 2 or pH above 8): more soluble | natural solubility limit of cystine (room temperature and neutral pH): 0.01 wt %
Structure (SMILES): N[C@@H](CSSC[C@H](N)C(=O)O)C(=O)O [cystine]
